Reference: patent publication US20090170851A1, “Chroman Compounds” (priority 2005, published 2009)

| melting point [°C] | SMILES |
| --- | --- |
| 160 to 165 | CCC(=O)N1CCN(c2ccc(NC(=O)C3CCc4cc(F)cc(N5CCN(C)CC5)c4O3)cc2)CC1 (stereo not drawn) [Example 32, 6-fluoro-8-(4-methylpiperazin-1-yl)-N-(4-(4-proprionyl-piperazin-1-yl)phenyl)chroman-2-carboxamide] |
| 180 to 190 | COc1cc2c(c(N3CCN(C)CC3)c1)OC(C(=O)Nc1ccc(N3CCN(C)CC3)cc1)CC2 (stereo not drawn) [Example 35, 6-methoxy-8-(4-methylpiperazin-1-yl)-N-(4-(4-methylpiperazin-1-yl)phenyl)chroman-2-carboxamide] |
| 150 to 160 | CN1CCN(c2ccc(NC(=O)C3CCc4cc(F)cc(N5CCN(C)CC5)c4O3)cc2)CC1 (stereo not drawn) [Example 41, 6-fluoro-8-(4-methylpiperazin-1-yl)-N-(4-(4-methylpiperazin-1-yl)phenyl)chroman-2-carboxamide] |
